In ChEMBL document CHEMBL1921706, “Discovery of a novel series of melanin-concentrating hormone receptor 1 antagonists for the treatment of obesity” (Bioorg Med Chem Lett, 2011):
One block for each compound: values may come before it. Active and inactive are the calls of the source. The rule behind the calls is not given here.

Experiments:
[1] = molecular target: T1, Melanin-concentrating hormone receptor 1 (Homo sapiens, UniProt Q99705); experiment: Antagonist activity at human MCHR1 expressed in Jurkat cells co-expressing apoaequorin assessed as inhibition of MCH-induced calcium mobilization by aequorin bioluminescence assay; type: functional, cell-based
T1 sequence (Q99705 whole entry): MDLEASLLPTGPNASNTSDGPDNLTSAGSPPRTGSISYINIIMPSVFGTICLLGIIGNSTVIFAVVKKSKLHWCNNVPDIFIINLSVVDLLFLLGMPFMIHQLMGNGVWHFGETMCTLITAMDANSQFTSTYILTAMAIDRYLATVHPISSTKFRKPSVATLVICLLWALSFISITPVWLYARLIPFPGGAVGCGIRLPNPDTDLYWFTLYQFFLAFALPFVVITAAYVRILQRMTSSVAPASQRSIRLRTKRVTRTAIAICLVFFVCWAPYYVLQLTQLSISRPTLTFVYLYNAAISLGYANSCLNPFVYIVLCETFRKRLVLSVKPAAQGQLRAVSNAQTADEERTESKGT

[2] = molecular target: T1, Melanin-concentrating hormone receptor 1; experiment: Displacement of [125I]-MCH from MCHR1 after 2 hrs by beta scintillation counting
[3] = tested on: Rattus norvegicus; experiment: Clearance in rat at 0.5 mg/kg, iv; type: ADME, organism-based; design: dose 0.5 mg/kg, route intravenous; conditions: in vivo
[4] = Clearance in Beagle dog at 0.5 mg/kg, iv; type: ADME, organism-based, Canis lupus familiaris; design: dose 0.5 mg/kg, route intravenous; conditions: in vivo
[5] = Clearance in rhesus monkey at 0.5 mg/kg, iv; type: ADME, organism-based, Macaca mulatta; design: dose 0.5 mg/kg, route intravenous; conditions: in vivo
[6] = Volume of distribution at steady state in rat at 0.5 mg/kg, iv; type: ADME, organism-based; design: dose 0.5 mg/kg, route intravenous; conditions: in vivo, read-out: Vdss
[7] = Volume of distribution at steady state in Beagle dog at 0.5 mg/kg, iv; type: ADME, organism-based, Canis lupus familiaris; design: dose 0.5 mg/kg, route intravenous; conditions: in vivo, read-out: Vdss
[8] = Volume of distribution at steady state in rhesus monkey at 0.5 mg/kg, iv; type: ADME, organism-based, Macaca mulatta; design: dose 0.5 mg/kg, route intravenous; conditions: in vivo, read-out: Vdss
[9] = Mean residence time in rat at 3 mg/kg, po; type: ADME, organism-based; design: dose 3 mg/kg, route oral; conditions: in vivo
[10] = Mean residence time in Beagle dog at 3 mg/kg, po; type: ADME, organism-based, Canis lupus familiaris; design: dose 3 mg/kg, route oral; conditions: in vivo
[11] = Mean residence time in rhesus monkey at 3 mg/kg, po; type: ADME, organism-based, Macaca mulatta; design: dose 3 mg/kg, route oral; conditions: in vivo
[12] = tested on: Rattus norvegicus; experiment: AUC in rat at 3 mg/kg, po; type: ADME, organism-based, Plasma; design: dose 3 mg/kg, route oral; conditions: in vivo
[13] = AUC in Beagle dog at 3 mg/kg, po; type: ADME, organism-based, Canis lupus familiaris; design: dose 3 mg/kg, route oral; conditions: plasma
[14] = AUC in rhesus monkey at 3 mg/kg, po; type: ADME, organism-based, Macaca mulatta; design: dose 3 mg/kg, route oral; conditions: plasma
[15] = tested on: Rattus norvegicus; experiment: Oral bioavailability in rat at 3 mg/kg; type: ADME, organism-based; conditions: in vivo
[16] = Oral bioavailability in Beagle dog at 3 mg/kg; type: ADME, organism-based, Canis lupus familiaris; conditions: in vivo
[17] = Oral bioavailability in rhesus monkey at 3 mg/kg; type: ADME, organism-based, Macaca mulatta; conditions: in vivo
[18] = Clearance in rat hepatocytes assessed per 10^6 cells; type: ADME, cell-based, Liver, Hepatocyte
[19] = Clearance in Beagle dog hepatocytes assessed per 10^6 cells; type: ADME, cell-based, Canis lupus familiaris, Liver, Hepatocyte
[20] = Clearance in rhesus monkey hepatocytes assessed per 10^6 cells; type: ADME, cell-based, Macaca mulatta, Liver, Hepatocyte
[21] = Clearance in human hepatocytes assessed per 10^6 cells; type: ADME, cell-based, Liver, Hepatocyte
[22] = molecular target: Melanin-concentrating hormone receptor 1 (Rattus norvegicus, UniProt P97639); experiment: Antagonist activity at rat MCHR1 expressed in HEK293 cells by aequorin bioluminescence assay; type: functional, cell-based
Sequence of Melanin-concentrating hormone receptor 1 (Rattus norvegicus, UniProt P97639) (P97639 whole entry): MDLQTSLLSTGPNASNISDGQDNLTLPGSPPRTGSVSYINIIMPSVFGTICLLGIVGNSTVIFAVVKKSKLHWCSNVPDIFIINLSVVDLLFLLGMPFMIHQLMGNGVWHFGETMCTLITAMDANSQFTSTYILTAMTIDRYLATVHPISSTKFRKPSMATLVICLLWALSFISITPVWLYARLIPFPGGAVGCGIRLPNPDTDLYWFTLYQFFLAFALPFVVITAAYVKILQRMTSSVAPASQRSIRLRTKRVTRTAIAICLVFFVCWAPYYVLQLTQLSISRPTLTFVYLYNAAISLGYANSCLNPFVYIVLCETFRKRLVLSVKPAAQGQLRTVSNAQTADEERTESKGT

[23] = tested on: Rattus norvegicus; experiment: Antiobesity activity in ICV cannulated rat model assessed as reduction in MCH-induced food intake at 0.2 mg/kg, po administered 3 hrs before MCH challenge measured after 4 hrs post MCH challenge; type: functional; design: scale not given: the % may be the effect or the level left
[24] = tested on: Rattus norvegicus; experiment: Antiobesity activity in ICV cannulated rat model assessed as reduction in MCH-induced food intake at 1 mg/kg, po administered 3 hrs before MCH challenge measured after 4 hrs post MCH challenge; type: functional, organism-based; design: dose 1 mg/kg
[25] = tested on: Rattus norvegicus; experiment: Antiobesity activity in ICV cannulated rat model assessed as reduction in MCH-induced food intake at 5 mg/kg, po administered 3 hrs before MCH challenge measured after 4 hrs post MCH challenge; type: functional, organism-based; design: dose 5 mg/kg
[26] = tested on: Rattus norvegicus; experiment: Toxicity in ICV cannulated rat model at 0.2 to 5 mg/kg, po administered 3 hrs before MCH challenge measured after 4 hrs post MCH challenge; type: organism-based; design: dose 0.2-5 mg/kg, route oral; conditions: in vivo
[27] = molecular target: Melanin-concentrating hormone receptor 2 (Homo sapiens) (UniProt Q969V1); experiment: Binding affinity to human MCHR2
Sequence of Melanin-concentrating hormone receptor 2 (Homo sapiens) (Q969V1 whole entry): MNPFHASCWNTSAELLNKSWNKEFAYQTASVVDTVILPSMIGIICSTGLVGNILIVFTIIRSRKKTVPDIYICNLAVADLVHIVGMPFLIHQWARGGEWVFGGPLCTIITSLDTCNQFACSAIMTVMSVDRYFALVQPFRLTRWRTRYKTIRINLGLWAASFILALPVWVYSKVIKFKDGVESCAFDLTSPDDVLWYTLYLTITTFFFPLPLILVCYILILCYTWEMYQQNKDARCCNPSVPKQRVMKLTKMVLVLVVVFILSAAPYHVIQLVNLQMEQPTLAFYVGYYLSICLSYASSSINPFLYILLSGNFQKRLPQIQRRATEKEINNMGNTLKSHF

[28] = molecular target: Melanin-concentrating hormone receptor 1 (Macaca fascicularis, UniProt B6F061); experiment: Antagonist activity at cynomolgus monkey MCHR1; type: functional
Sequence of Melanin-concentrating hormone receptor 1 (Macaca fascicularis, UniProt B6F061) (B6F061 whole entry): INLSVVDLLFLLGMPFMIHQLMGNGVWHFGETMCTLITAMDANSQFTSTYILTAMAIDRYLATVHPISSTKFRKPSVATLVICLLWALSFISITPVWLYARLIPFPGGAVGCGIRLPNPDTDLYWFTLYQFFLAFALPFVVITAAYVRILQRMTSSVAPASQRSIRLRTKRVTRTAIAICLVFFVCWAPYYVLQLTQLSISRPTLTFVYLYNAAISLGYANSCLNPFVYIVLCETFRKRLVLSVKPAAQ

[29] = tested on: Cynomolgus monkey; experiment: Antiobesity activity in cynomolgus monkey assessed as reduction of food intake at 10 mg/kg, po measured up to 8 days; type: functional, organism-based; design: dose 10 mg/kg; conditions: Macaca fascicularis
[30] = tested on: Rattus norvegicus; experiment: Toxicity in ICV cannulated rat model assessed as behavioural toxicity at 0.2 to 5 mg/kg, po administered 3 hrs before MCH challenge measured after 4 hrs post MCH challenge; type: organism-based; design: dose 0.2-5 mg/kg, route oral; conditions: in vivo
[31] = tested on: Cynomolgus monkey; experiment: Toxicity in cynomolgus monkey assessed as signs of sedation at 10 mg/kg, po; type: organism-based, Macaca fascicularis; design: dose 10 mg/kg, route oral; conditions: in vivo
[32] = tested on: Cynomolgus monkey; experiment: Toxicity in cynomolgus monkey at 10 mg/kg, po; type: organism-based, Macaca fascicularis; design: dose 10 mg/kg, route oral; conditions: in vivo

SMILES: CC1c2c([nH]c3c(Cl)cccc23)CC2CCN(C)CC21 (racemic)
- IC50 [1]: 1000 nM

SMILES: CC1c2c([nH]c3ccc(C(F)(F)F)cc23)CC2CCN(C(=O)c3ccccc3)CC21 (racemic)
- IC50 [1]: > 20000 nM

SMILES: CC1c2c([nH]c3ccc(C(F)(F)F)cc23)CC2CCN(C(=O)C3CCOC3)CC21 (racemic)
- IC50 [1]: > 20000 nM

SMILES: CC1c2c([nH]c3cc(C(F)(F)F)ccc23)CC2CCN(C)CC21 (racemic)
- IC50 [1]: 200 nM

SMILES: Cc1ccc2[nH]c3c(c2c1)C(C)C1CN(C)CCC1C3 (racemic)
- IC50 [1]: 200 nM

SMILES: CC1c2c([nH]c3ccccc23)CC2CCN(C)CC21 (racemic)
- IC50 [1]: 1000 nM

SMILES: CC1c2c([nH]c3ccc(C(F)(F)F)cc23)CC2CCN(Cc3ccccc3)CC21 (racemic)
- IC50 [1]: 580 nM

SMILES: CC1c2c([nH]c3cccc(Cl)c23)CC2CCN(C)CC21 (racemic)
- IC50 [1]: 700 nM

SMILES: COc1ccc2[nH]c3c(c2c1)C(C)C1CN(C)CCC1C3 (racemic)
- IC50 [1]: 400 nM

SMILES: C[C@@H]1c2c([nH]c3ccc(C(F)(F)F)cc23)C[C@@H]2CCN(CCN3CCOCC3)C[C@H]21
- IC50 [1]: 1000 nM
- IC50 [2]: 750 nM

These reach a lower IC50 [1]. Values come first.

- IC50 [1]: 180 nM
SMILES: CC1c2c([nH]c3ccc(C(F)(F)F)cc23)CC2CCN(CC3CCCCO3)CC21 (racemic)

- IC50 [1]: 180 nM
SMILES: CC1c2c([nH]c3ccc(C(F)(F)F)cc23)CC2CCN(CCc3ccccc3)CC21 (racemic)

- IC50 [1]: 100 nM
SMILES: CC1c2c([nH]c3ccc(Cl)cc23)CC2CCN(C)CC21 (racemic)

- IC50 [1]: 100 nM
SMILES: CC1c2c([nH]c3ccc(C(F)(F)F)cc23)CC2CCN(C)CC21 (racemic)

- IC50 [1]: 100 nM
- IC50 [2]: 40 nM
SMILES: C[C@H]1c2c([nH]c3ccc(C(F)(F)F)cc23)C[C@H]2CCN(CCN3CCCCC3)C[C@@H]21

- IC50 [1]: 50 nM
SMILES: CC1c2c([nH]c3cc(Cl)c(Cl)cc23)CC2CCN(C)CC21 (racemic)

- IC50 [1]: 50 nM
- IC50 [2]: 4.4 nM
SMILES: C[C@H]1c2c([nH]c3ccc(C(F)(F)F)cc23)C[C@H]2CCN(CCCCC3CCOCC3)C[C@@H]21

- IC50 [1]: 20 nM
- IC50 [2]: 3 nM
SMILES: C[C@H]1c2c([nH]c3ccc(C(F)(F)F)cc23)C[C@H]2CCN(CCN3CCOCC3)C[C@@H]21

- IC50 [1]: 20 nM
SMILES: CC1c2c([nH]c3ccc(C(F)(F)F)cc23)CC2CCN(CCN3CCOCC3)CC21 (racemic)

- IC50 [1]: 7 nM
- IC50 [2]: 7 nM
SMILES: C[C@H]1c2c([nH]c3ccc(C(F)(F)F)cc23)C[C@H]2CCN(CCN3CCOCC3=O)C[C@@H]21

- IC50 [1]: 6 nM
- IC50 [2]: 0.5 nM
- CL [3]: 3.3 mL/min/kg
- clearance [4]: 100 mL/min/kg
- clearance [5]: 65 mL/min/kg
- Vd [6]: 16 L/kg
- Vd [7]: 27 L/kg
- Vd [8]: 18 L/kg
- MRT [9]: 28 h
- MRT [10]: 2.5 h
- MRT [11]: 10 h
- AUC [12]: 4078 ng·h/mL
- AUC [13]: 268 ng·h/mL
- AUC [14]: 907 ng·h/mL
- F [15]: 81%
- bioavailability [16]: 33%
- bioavailability [17]: 70%
- hepatocyte CLint [18]: < 0.3 µL/min/1e6 cells
- hepatocyte CLint [19]: 8 µL/min/1e6 cells
- hepatocyte CLint [20]: 4.9 µL/min/1e6 cells
- hepatocyte CLint [21]: < 0.3 µL/min/1e6 cells
- IC50 [22]: 4 nM
- Activity [27]: inactive
- IC50 [28]: 4 nM
SMILES: C[C@H]1c2c([nH]c3ccc(C(F)(F)F)cc23)C[C@H]2CCN(CCCC3CCOCC3)C[C@@H]21
- Activity [23]: 50%
- Activity [24]: Active
- Activity [25]: Active
- Activity [26]: Non-toxic
- Activity [29]: Active
- Activity [30]: Non-toxic
- Activity [31]: Non-toxic
- Activity [32]: Non-toxic

- IC50 [1]: 6 nM
- IC50 [2]: 0.9 nM
SMILES: C[C@H]1c2c([nH]c3ccc(C(F)(F)F)cc23)C[C@H]2CCN(CCC3CCOCC3)C[C@@H]21
